According to patent publication US20250034186A1, “ANTIVIRAL COMPOUNDS” (priority 2020, published 2025):
pEC50: −log10 of the molar value.

Experiments:
HCV replicon 2A = assay: HCV Rep 2A EC50; assay type: cell-based; conditions: for pEC50: Hepatitis C virus, 72 h, HCV replicon cells, 3 days
Method: Compounds were serially diluted in ten steps of 1:3 dilutions in 384-well plates. All serial dilutions were performed in four replicates per compound within the same 384-well plate. […] To each well of a black polystyrene 384-well plate (Greiner Bio-one, Monroe, NC), 90 μL of cell culture medium (without Geneticin) containing 2000 suspended HCV replicon cells was added with a Biotek μFlow workstation. For compound transfer into cell culture plates, 0.4 μL of compound solution from the compound serial dilution plate was transferred to the cell culture plate on a Biomek FX workstation. The DMSO concentration in the final assay wells was 0.44%. The plates were incubated for 3 days at 37° C. with 5% CO2 and 85% humidity. The HCV replicon assay was a multiplex assay, able to assess both cytotoxicity and antireplicon activity from the same well. The CC50 assay was performed first. The media in the 384-well cell culture plate was aspirated, and the wells were washed four times with 100 μL of PBS each, using a Biotek ELX405 plate washer. A volume of 50 μL of a solution containing 400 nM calcein AM (Anaspec, Fremont, CA) in 1×PBS was added to each well of the plate with a Biotek μFlow workstation. The plate was incubated for 30 min at room temperature before the fluorescence signal (excitation 490 nm, emission 520 nm) was measured with a Perkin-Elmer Envision plate reader. The EC50 assay was performed in the same wells as the CC50 assay. The calcein-PBS solution in the 384-well cell culture plate was aspirated with a Biotek ELX405 plate washer. A volume of 20 μL of Dual-Glo luciferase buffer (Promega, Madison, WI) was added to each well of the plate with a Biotek μFlow Workstation. The plate was incubated for 10 min at room temperature. […] The plate was then incubated at room temperature for 10 min before the luminescence signal was measured with a Perkin-Elmer Envision Plate Reader.

[1] = system: Dengue serotype 2 New Guinea C (NGC) strain; assay: DENV-2 Huh-7 EC50; assay type: cell-based; conditions: Dengue virus, Huh7 cells, 48 hours, qPCR
Method: Huh7 (Human hepatocarcinoma 7) cells were maintained in 10% FCS-containing DMEM complete media. On the day of the assay, cells were trypsinized (0.1% Trypsin-EDTA), washed and infected for 2 hours in serum-free DMEM with Dengue serotype 2 New Guinea C (NGC) strain at MOI=0.1 with gentle agitation at 37° C. After 2 hours, cells were washed with serum-free media and suspended in 10% FCS-containing DMEM (Gibco, supplemented with sodium pyruvate, NEAA, Penicillin-Streptomycin). […] were plated in triplicate in 96-well plates with compounds dispensed at graded doses (Hewlett-Packard D300 Digital Dispenser). All wells were normalized to 0.25% DMSO. At 48 hours, cells were washed with 1×PBS and all supernatants removed. Total RNA was extracted using RNEasy 96 plates (Qiagen) and used to generate first-strand cDNA using XLT cDNA 5× Supermix (QuantaBio). cDNA was used as a template in a Taqman qPCR duplex reaction specific to DENV2 viral and GAPDH gene expression. EC50 values were determined using Prism Graphpad software, with normalization to a positive control and no compound negative control wells.

in vitro = assay type: cell-based; conditions: human, read-out: CC50 GALPC3
Method: Compounds were tested in a high-throughput 384-well assay format for cytotoxicity in galactose-adapted PC3 cells (human prostate cancer cell line). Cells were diluted in media (DMEM (11966), 10% FBS, 1% NEAA, 0.2% Galactose, 1% Pyruvate, 1% Glutamax, 1% PSG) to 16.6K cells/mL and plated at 90 uL/well into 384 well poly-D-lysine coated assay plates and placed in an incubator at 37° C. and 5% CO2. Compounds were serially diluted (1:3) in 100% DMSO in 384-well plates in quadruplicate. DMSO and 2 mM Puromycin were included as negative and positive controls respectively. 24 hours after cell plating, a 384 channel pipettor was used to transfer 0.4 uL from the compound plate to the assay plate. Assay plates are returned to the incubator. After 5 days, assay plates are washed with 80 uL/well of PBS before addition of 20 μL of Cell Titer Glo. Assay plates are read on the Envision plate reader. […] CC50 values were calculated in Accord (on-line tool) using a one-site dose-response model to generate sigmoidal curve fits.

[2] = PBMC in-vitro intracellular triphosphate formation assay; assay type: in vitro ADME; conditions: 2 μM, 2 hours incubation, compared to compound 2 and/or 6 (FIG. 2)
Method: In-vitro intracellular triphosphate formation was measured for the compound of Formula I and compounds 2 and 6 using the following protocol. Freshly-isolated PBMC's were derived from a healthy donor and were suspended to a concentration of 5 million cells/mL in culture medium ([…] containing L-glutamine) prior to the start of the experiment. 10 mL aliquots of PBMCs were transferred to 50 mL conical tubes with loosened caps and compounds were added to a final concentration of 2 μM. 1 mL aliquots were then transferred to the wells of a 24-well plate per sample. The PBMC-compound mixtures were incubated for 2 hours at 37° c./5% CO2 under gentle agitation. Following incubation, PBMCs were spun at 5000 RPM for 3 min and supernatants were aspirated without disturbing the cell pellet. For samples undergoing immediate analysis, samples were resuspended in pre-cooled 1× Tris-buffered saline and were transferred to 1.5 mL conical tubes containing 0.5 mL of nyosil M25. Samples/Oil aliquots were then spun for 1 min at 13,000 RPM. Following centrifugation, all media was aspirated from the tubes without disturbing the oil layer. Water was added on top of the oil layer and the spinning/aspiration process was repeated followed by an additional water wash. […]

| SMILES | pEC50 (HCV replicon 2A) | pEC50 [1] | CC50 at 5 days (in vitro) [nM] | times more potent relative to compound 2, HCV Rep 2A (HCV replicon 2A; EC50 ratio vs compound 2) [times] | in-vitro intracellular NTP formation in PBMCs [2] |
| --- | --- | --- | --- | --- | --- |
| CCC(CC)COC(=O)[C@H](C)NP(=O)(OC[C@@]1(C#N)O[C@@H](c2ccc3c(N)ncnn23)[C@H](O)[C@@H]1O)Oc1ccccc1 (stereo partly shown) [Compound 2, reference compound] | 5.74 |  |  |  |  |
| C[C@H](N[P@](=O)(OC[C@@]1(C#N)O[C@@H](c2ccc3c(N)ncnn23)[C@H](O)[C@@H]1O)Oc1ccccc1)C(=O)OC1CCCCC1 [Formula I, cyclohexyl ((S)-(((2R,3S,4R,5S)-5-(4-aminopyrrolo[2,1-f][1,2,4]triazin-7-yl)-2-cyano-3,4-dihydroxytetrahydrofuran-2-yl)methoxy)(phenoxy)phosphoryl)-L-alaninate] | 5.90 | 5.79 | > 44400 | ~1.4 | lower |
| CCC(CC)COC(=O)[C@H](C)N[P@](=O)(OC[C@@]1(C#N)O[C@@H](c2ccc3c(N)ncnn23)[C@H](O)[C@@H]1O)Oc1ccccc1 [Compound 6, 2-ethylbutyl ((S)-(((2R,3S,4R,5S)-5-(4-aminopyrrolo[2,1-f][1,2,4]triazin-7-yl)-2-cyano-3,4-dihydroxytetrahydrofuran-2-yl)methoxy)(phenoxy)phosphoryl)alaninate] |  |  | > 83500 |  |  |
